# Measured values reported in patent publication US20250275535A1, “OLIVE TREE BIOMASS EXTRACT” (Veos Pharmaceuticals, S.L., priority 2024, published 2025).
# Where “and” joins values, the source holds several entries; their conditions need not be identical. Equal entries are not always repeated.
# Legend:
# Assay type in all cases: in vivo
# Rice plants = test: Rice growth rate (column length); settings: 12 wt. % hydroxytyrosol
# Experimental: Rice plants were treated with 12 wt. % hydroxytyrosol over 28 days. As a control, rice plants were treated with water over 28 days. FIG. 4 depicts a line chart showing the column length of rice plants over 28 days. Table 1 provides the column length of rice plants treated with 12 wt. % hydroxytyrosol and water after 1, 14, and 28 days.
# Sorghum seeds (RT X 437) = test: Sorghum seed germination; settings: 12 wt. % hydroxytyrosol solution, room temperature, 14 days; water control 36% (FIG. 2C), 29% (repeat, FIG. 2D)
# Experimental: Sorghum seeds (RT X 437) were incubated at room temperature in a solution including 12 wt. % hydroxytyrosol for 14 days. As a control, sorghum seeds (RT X 437) were incubated at room temperature in water for 14 days.
# HSP70 = test: Fold change in protein expression (SDS-PAGE, Western blotting, densitometry); settings: 12% hydroxytyrosol, vs water control, FIG. 6
# Experimental: (§1) The effect of different hydroxytyrosol concentrations on crop stress resistance and protein production was examined. […] Protein quantification was conducted using SDS-PAGE and Western blotting for visualization, followed by densitometry analysis to measure fold increases in protein expression. Additionally, HPLC-DAD and mass spectrometry were utilized to confirm hydroxytyrosol stability and retention in plant tissue.
# [1] = tested on: low molecular weight proteins (sHSPs, LTPs, pathogenesis-related proteins, and LEA proteins); test: as above; settings: 12% hydroxytyrosol, vs water control, FIG. 6
# Experimental: as §1
# other HSPs = test: as above; settings: 12% hydroxytyrosol, vs water control, FIG. 6
# Experimental: as §1
# Rubisco = test: as above; settings: 12% hydroxytyrosol, vs water control, FIG. 6
# Experimental: as §1
# [2] = tested on: Rice seeds (Japanese cultivar, Taipei 309); test: Rice seed germination; settings: 12 wt. % hydroxytyrosol solution, 37° C., 14 days; water control 56%
# Experimental: Rice seeds (Japanese cultivar, Taipei 309) were incubated at 37° C. in a solution including 12 wt. % hydroxytyrosol for 14 days. As a control, rice seeds (Japanese cultivar, Taipei 309) were incubated at 37° C. in water for 14 days.
# [3] = tested on: Corn seeds (field hybrid 7571); test: Corn seed germination; settings: 12 wt. % hydroxytyrosol solution, room temperature, 14 days; water control 27% (FIG. 1C), 33% (repeat, FIG. 1D)
# Experimental: Corn seeds (field hybrid 7571) were incubated at room temperature in a solution including 12 wt. % hydroxytyrosol for 14 days. As a control, corn seeds (field hybrid 7571) were incubated at room temperature in water for 14 days.
smiles,measurement,setting,value
OCCc1ccc(O)c(O)c1 [hydroxytyrosol],column length of rice plants,"Rice plants; 1 day of treatment, water control 22 cm",35 cm
same,column length of rice plants,"Rice plants; 14 days of treatment, water control 39 cm",82 cm
same,column length of rice plants,"Rice plants; 28 days of treatment, water control 60 cm",112 cm
same,sorghum seeds germinated,Sorghum seeds (RT X 437),78% and 77%
same,increase in HSP70 (fold change in protein expression),HSP70,2.99 ×
same,increase in low molecular weight proteins (fold change in protein expression),[1],4.09 ×
same,increase in other HSPs (fold change in protein expression),other HSPs,3.10 ×
same,increase in Rubisco (fold change in protein expression),Rubisco,1.72 ×
same,rice seeds germinated,[2],74%
same,corn seeds germinated,[3],75% and 69%
